Reference: patent US20260166128A1, “HUMAN AMYLIN ANALOG, AND DERIVATIVE THEREOF AND USE THEREOF” (priority 2022, published 2026)
Numbered stars: 1 amine (or outer) side, 2 acyl side, 3 side chain; on linkers, the order of the positions; unused ones are H or OH. Bridge positions count the residues as written; N and C are the ends. Square brackets hold non-standard residues; d marks the D form. Side chains are listed from the residue outwards. Peptide text beside a SMILES is read from it. * marks the point of attachment. C20 diacid = O=C(O)CCCCCCCCCCCCCCCCCCC(=O)*; γGlu = O=C(O)[C@H](CCC(=O)[*:2])N[*:1]; Hyp = O=C(O)[C@@H]1C[C@@H](O)CN1; AEEA = NCCOCCOCC(=O)O

Key:
human amylin receptor = target: T1, human amylin receptor (Homo sapiens, UniProt O60896+P30988); test: Luciferase assay of amylin derivatives in amylin receptor/CRE-luc CHO cell line; assay type: cell-based; conditions: CHO-K1/Ga15/AMY3 CRE-luc cells, 24 hours incubation, F12 medium containing 10% FBS; read-out: EC50
T1 construct: host or cells: CHO-K1/Ga15/AMY3 cells, further stably transfected with a CRE-luciferase plasmid
T1 sequence (P30988 25-474): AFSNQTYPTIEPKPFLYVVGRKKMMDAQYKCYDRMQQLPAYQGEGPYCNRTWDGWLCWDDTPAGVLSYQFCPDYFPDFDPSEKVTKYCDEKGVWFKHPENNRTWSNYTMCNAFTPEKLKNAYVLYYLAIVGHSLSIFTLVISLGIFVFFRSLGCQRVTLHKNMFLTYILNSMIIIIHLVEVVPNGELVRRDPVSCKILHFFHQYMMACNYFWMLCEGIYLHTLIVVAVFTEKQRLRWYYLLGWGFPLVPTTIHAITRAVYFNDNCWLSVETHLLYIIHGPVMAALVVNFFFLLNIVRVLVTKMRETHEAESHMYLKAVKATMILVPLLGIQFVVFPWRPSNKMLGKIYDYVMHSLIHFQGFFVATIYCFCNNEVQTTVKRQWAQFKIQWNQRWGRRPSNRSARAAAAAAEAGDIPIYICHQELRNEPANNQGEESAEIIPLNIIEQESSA
T1 sequence (O60896 24-148 partner): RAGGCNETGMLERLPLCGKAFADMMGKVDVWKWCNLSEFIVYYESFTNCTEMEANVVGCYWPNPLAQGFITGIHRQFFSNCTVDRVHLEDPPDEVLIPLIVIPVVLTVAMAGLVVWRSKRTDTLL
Procedure: The experiment was intended to detect the activity or efficacy of the amylin derivatives on a human amylin receptor in vitro by luciferase assay.
50 μL of growth medium (F12 medium containing 10% FBS) was added into each well of a white 96-well plate, and the stably transfected amylin/CRE-lue CHO cells were inoculated into the white 96-well plate at a density of about 20,000 cells/well for activity determination.

[1] = Weight loss efficacy of derivatives in SD rats (Example 5); assay type: in vivo, SD (Sprague Dawley) rats; conditions: experimental group B, subcutaneous, 30 nmol/kg
Description: SD (Sprague Dawley) rats weighing 200 g to 250 g were selected for this experimental study. Before the experiment, the rats arrived for at least 10 days to 14 days to adapt to the experimental environment. During this period, the rats were fed for two weeks in a reversed light/dark stage (meaning that the light was turned off during the day and turned on during the night) after arrival, and were fed separately in the first week of arrival to ensure accurate data and high test sensitivity, and the rats were free to obtain food and water during the whole adaptation period and experimental period. There were an experimental group [NT]5 and A6, and an experimental group B: B1, B2, B3, B4 and B5, with 5 to 8 rats in each treatment group of the derivative, and the rats in each group were subcutaneously administered with a derivative or a solvent by a dosage of 30 nmol/kg. The administration time of each group was recorded. After administration, the rats were put back into their cages in which the rats could get food and water. Food consumption and weight changes of the rats were recorded every 24 hours by online recording or manual recording. Weight and food intake changes of the SD rats in each group were as shown in FIG. 2A to FIG. 2D, Table 9 and Table 10.

[2] = assay type: physicochemical
Procedure: The penicillin bottle after covering was placed in a stability test box at 40° C. Before testing, a sample was centrifuged at 10,000 rpm and 4° C. for 3 minutes, and a supernatant was taken and added into a liquid-phase sample injection bottle. The sample was detected by the liquid phase method in Example 3.

[3] = Freeze-thaw stability of derivatives (freeze-thaw yield by liquid chromatography); assay type: physicochemical; conditions: for Dissolution property: appearance after dissolution at 0.2 mg/ml in 20 mM phosphate buffer solution (PB) (pH 7.0); for Freeze storage property: appearance after overnight storage at −20° C. and thawing to room temperature, 0.2 mg/ml in 20 mM PB (pH 7.0)
In short: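 Freeze-thaw yield is the ratio of peptide concentration after versus before one overnight −20° C freeze and room-temperature thaw, both quantified by RP-HPLC of supernatant after centrifugation. Samples were 0.2 mg/ml freeze-dried derivative in 20 mM PB, pH 7.0.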

| SMILES | EC50 (human amylin receptor) | Weight change rate at 48th hour [1] | thermal stability [2] | Dissolution property [3] | Freeze storage property [3] | Freeze storage yield ([3]; concentration of polypeptide after freezing and thawing / concentration before, by liquid chromatography, −20° C. overnight) |
| --- | --- | --- | --- | --- | --- | --- |
| CC[C@H](C)[C@H](NC(=O)[C@@H]1CCCN1C(=O)[C@H](CCCCN)NC(=O)[C@H](CC(C)C)NC(=O)[C@H](CC(N)=O)NC(=O)[C@H](CC(N)=O)NC(=O)[C@H](CO)NC(=O)[C@H](CO)NC(=O)[C@H](Cc1c[nH]cn1)NC(=O)[C@H](CCCNC(=N)N)NC(=O)[C@H](CC(C)C)NC(=O)[C@H](Cc1ccccc1)NC(=O)[C@H](CC(=O)O)NC(=O)[C@H](C)NC(=O)[C@H](CC(C)C)NC(=O)[C@H](CCCNC(=N)N)NC(=O)[C@H](CCC(N)=O)NC(=O)[C@@H](NC(=O)[C@H](C)NC(=O)[C@@H]1CSSC[C@H](NC(=O)[C@H](CCCCN)NC(=O)CC[C@H](NC(=O)CCCCCCCCCCCCCCCCCCC(=O)O)C(=O)O)C(=O)N[C@@H](CC(N)=O)C(=O)N[C@@H]([C@@H](C)O)C(=O)N[C@@H](C)C(=O)N[C@@H]([C@@H](C)O)C(=O)N1)[C@@H](C)O)C(=O)N[C@@H](CC(C)C)C(=O)N1CCC[C@H]1C(=O)N1CCC[C@H]1C(=O)N[C@H](C(=O)N[C@@H](CC(N)=O)C(=O)N[C@H](C(=O)NCC(=O)N[C@@H](CO)C(=O)N[C@@H](CC(N)=O)C(=O)N[C@H](C(=O)N1CCC[C@H]1C(N)=O)[C@@H](C)O)C(C)C)[C@@H](C)O [PD160] ({C20 diacid-γGlu}-KCNTATCATQRLADFLRHSSNNLKPILPPTNVGSNTP-NH2; disulfide 2-7 (inferred)) | 0.035 nM | −7.87 | – | – | – | – |
| CC[C@H](C)[C@H](NC(=O)[C@@H]1CCCN1C(=O)CNC(=O)[C@H](CC(C)C)NC(=O)[C@H](CC(N)=O)NC(=O)[C@H](CC(N)=O)NC(=O)[C@H](CO)NC(=O)[C@H](CO)NC(=O)[C@H](Cc1c[nH]cn1)NC(=O)[C@H](CCCNC(=N)N)NC(=O)[C@H](CC(C)C)NC(=O)[C@H](Cc1ccccc1)NC(=O)[C@H](CC(=O)O)NC(=O)[C@H](C)NC(=O)[C@H](CC(C)C)NC(=O)[C@H](CCCNC(=N)N)NC(=O)[C@H](CCC(N)=O)NC(=O)[C@@H](NC(=O)[C@H](C)NC(=O)[C@@H]1CSSC[C@H](NC(=O)[C@@H](N)CCCCNC(=O)CC[C@H](NC(=O)CCCCCCCCCCCCCCCCCCC(=O)O)C(=O)O)C(=O)N[C@@H](CC(N)=O)C(=O)N[C@@H]([C@@H](C)O)C(=O)N[C@@H](C)C(=O)N[C@@H]([C@@H](C)O)C(=O)N1)[C@@H](C)O)C(=O)N[C@@H](CC(C)C)C(=O)N1CCC[C@H]1C(=O)N1CCC[C@H]1C(=O)N[C@H](C(=O)N[C@@H](CC(N)=O)C(=O)N[C@H](C(=O)NCC(=O)N[C@@H](CO)C(=O)N[C@@H](CC(N)=O)C(=O)N[C@H](C(=O)N1C[C@H](O)C[C@H]1C(N)=O)[C@@H](C)O)C(C)C)[C@@H](C)O [PD070] (H-K([γGlu-C20 diacid])CNTATCATQRLADFLRHSSNNLGPILPPTNVGSNT[Hyp]-NH2; disulfide 2-7) | 0.038 nM | – | extremely low decrease percentage of protein concentration | – | – | – |
| CC[C@H](C)[C@H](NC(=O)[C@@H]1CCCN1C(=O)CNC(=O)[C@H](CCCCNC(=O)COCCOCCNC(=O)COCCOCCNC(=O)CC[C@H](NC(=O)CCCCCCCCCCCCCCCCCCC(=O)O)C(=O)O)NC(=O)[C@H](CC(N)=O)NC(=O)[C@H](CC(N)=O)NC(=O)[C@H](CO)NC(=O)[C@H](CO)NC(=O)[C@H](Cc1c[nH]cn1)NC(=O)[C@H](CCCNC(=N)N)NC(=O)[C@H](CC(C)C)NC(=O)[C@H](Cc1ccccc1)NC(=O)[C@H](CCC(=O)O)NC(=O)[C@H](C)NC(=O)[C@H](CC(C)C)NC(=O)[C@H](CCCNC(=N)N)NC(=O)[C@H](CCC(N)=O)NC(=O)[C@@H](NC(=O)[C@H](C)NC(=O)[C@@H]1CSSC[C@H](NC(=O)[C@@H](N)CCCNC(=N)N)C(=O)N[C@@H](CC(N)=O)C(=O)N[C@@H]([C@@H](C)O)C(=O)N[C@@H](C)C(=O)N[C@@H]([C@@H](C)O)C(=O)N1)[C@@H](C)O)C(=O)N[C@@H](CC(C)C)C(=O)N1CCC[C@H]1C(=O)N1CCC[C@H]1C(=O)N[C@H](C(=O)N[C@@H](CC(N)=O)C(=O)N[C@H](C(=O)NCC(=O)N[C@@H](CO)C(=O)N[C@@H](CC(N)=O)C(=O)N[C@H](C(=O)N1CCC[C@H]1C(N)=O)[C@@H](C)O)C(C)C)[C@@H](C)O [PD003] (H-RCNTATCATQRLAEFLRHSSNNK([AEEA-AEEA-γGlu-C20 diacid])GPILPPTNVGSNTP-NH2; disulfide 2-7 (inferred); N-terminus assumed) | 0.14 nM | – | – | Clear | Clear | – |
| CC[C@H](C)[C@H](NC(=O)[C@@H]1CCCN1C(=O)CNC(=O)[C@H](CC(C)C)NC(=O)[C@H](CC(N)=O)NC(=O)[C@H](CCCCNC(=O)COCCOCCNC(=O)COCCOCCNC(=O)CC[C@H](NC(=O)CCCCCCCCCCCCCCCCCCC(=O)O)C(=O)O)NC(=O)[C@H](CO)NC(=O)[C@H](CO)NC(=O)[C@H](Cc1c[nH]cn1)NC(=O)[C@H](CCCNC(=N)N)NC(=O)[C@H](CC(C)C)NC(=O)[C@H](Cc1ccccc1)NC(=O)[C@H](CCC(=O)O)NC(=O)[C@H](C)NC(=O)[C@H](CC(C)C)NC(=O)[C@H](CCCNC(=N)N)NC(=O)[C@H](CCC(N)=O)NC(=O)[C@@H](NC(=O)[C@H](C)NC(=O)[C@@H]1CSSC[C@H](NC(=O)[C@@H](N)CCCNC(=N)N)C(=O)N[C@@H](CC(N)=O)C(=O)N[C@@H]([C@@H](C)O)C(=O)N[C@@H](C)C(=O)N[C@@H]([C@@H](C)O)C(=O)N1)[C@@H](C)O)C(=O)N[C@@H](CC(C)C)C(=O)N1CCC[C@H]1C(=O)N1CCC[C@H]1C(=O)N[C@H](C(=O)N[C@@H](CC(N)=O)C(=O)N[C@H](C(=O)NCC(=O)N[C@@H](CO)C(=O)N[C@@H](CC(N)=O)C(=O)N[C@H](C(=O)N1CCC[C@H]1C(N)=O)[C@@H](C)O)C(C)C)[C@@H](C)O [PD001] (H-RCNTATCATQRLAEFLRHSSK([AEEA-AEEA-γGlu-C20 diacid])NLGPILPPTNVGSNTP-NH2; disulfide 2-7 (inferred); N-terminus assumed) | 0.042 nM | – | – | Clear | Clear | – |
| CC[C@H](C)[C@H](NC(=O)[C@@H]1CCCN1C(=O)[C@H](CCCCNC(=O)CC[C@H](NC(=O)CCCCCCCCCCCCCCCCCCC(=O)O)C(=O)O)NC(=O)[C@H](CC(C)C)NC(=O)[C@H](CC(N)=O)NC(=O)[C@H](CC(N)=O)NC(=O)[C@H](CO)NC(=O)[C@H](CO)NC(=O)[C@H](Cc1c[nH]cn1)NC(=O)[C@H](CCCNC(=N)N)NC(=O)[C@H](CC(C)C)NC(=O)[C@H](Cc1ccccc1)NC(=O)[C@H](CCC(=O)O)NC(=O)[C@H](C)NC(=O)[C@H](CC(C)C)NC(=O)[C@H](CCCNC(=N)N)NC(=O)[C@H](CCC(N)=O)NC(=O)[C@@H](NC(=O)[C@H](C)NC(=O)[C@@H]1CSSC[C@H](NC(=O)[C@@H](N)CCCNC(=N)N)C(=O)N[C@@H](CC(N)=O)C(=O)N[C@@H]([C@@H](C)O)C(=O)N[C@@H](C)C(=O)N[C@@H]([C@@H](C)O)C(=O)N1)[C@@H](C)O)C(=O)N[C@@H](CC(C)C)C(=O)N1CCC[C@H]1C(=O)N1CCC[C@H]1C(=O)N[C@H](C(=O)N[C@@H](CC(N)=O)C(=O)N[C@H](C(=O)NCC(=O)N[C@@H](CO)C(=O)N[C@@H](CC(N)=O)C(=O)N[C@H](C(=O)N1CCC[C@H]1C(N)=O)[C@@H](C)O)C(C)C)[C@@H](C)O [PD047] (H-RCNTATCATQRLAEFLRHSSNNLK([γGlu-C20 diacid])PILPPTNVGSNTP-NH2; disulfide 2-7 (inferred); N-terminus assumed) | 0.073 nM | – | – | – | – | 0.00% |
